The record followed here is ChEMBL document CHEMBL1129178, “Thiol inhibitors of endothelin-converting enzyme” (Bioorg Med Chem Lett, 1996).

The structures appear in SMILES notation.

One test addresses T1, Endothelin-converting enzyme 1 (Rattus norvegicus) (UniProt P42893).
T1 sequence (whole entry): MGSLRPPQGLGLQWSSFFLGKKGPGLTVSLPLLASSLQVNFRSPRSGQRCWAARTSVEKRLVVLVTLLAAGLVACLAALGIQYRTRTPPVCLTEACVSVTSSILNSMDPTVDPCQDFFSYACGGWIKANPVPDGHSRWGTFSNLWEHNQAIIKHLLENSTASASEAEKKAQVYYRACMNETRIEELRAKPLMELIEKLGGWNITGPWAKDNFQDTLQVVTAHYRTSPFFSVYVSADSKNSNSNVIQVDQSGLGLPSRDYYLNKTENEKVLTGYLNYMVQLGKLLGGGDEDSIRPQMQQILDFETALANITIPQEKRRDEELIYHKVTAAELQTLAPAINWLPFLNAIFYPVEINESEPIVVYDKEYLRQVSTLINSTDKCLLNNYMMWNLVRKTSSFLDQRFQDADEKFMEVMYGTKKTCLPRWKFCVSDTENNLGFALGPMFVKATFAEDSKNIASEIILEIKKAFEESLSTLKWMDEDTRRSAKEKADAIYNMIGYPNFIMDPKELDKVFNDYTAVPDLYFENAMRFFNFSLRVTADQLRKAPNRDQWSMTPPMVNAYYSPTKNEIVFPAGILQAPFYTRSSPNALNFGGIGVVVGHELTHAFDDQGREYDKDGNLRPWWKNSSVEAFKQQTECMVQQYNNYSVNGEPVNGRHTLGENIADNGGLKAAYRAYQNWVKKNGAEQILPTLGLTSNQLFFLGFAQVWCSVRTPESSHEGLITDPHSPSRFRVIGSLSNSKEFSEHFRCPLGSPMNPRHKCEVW
Briefly: In vitro inhibition of cleavage of [3H]propionyl-big ET-1(19-35) by Endothelin-converting enzyme 1 from rat lungs at 10000 nM.
As a reminder, the inhibition is the relative decrease from the control value, in per cent. Low values mean little suppression, high ones strong suppression. As to `O=C(O)[C@H](Cc1c[nH]c2ccccc12)NC(=O)[C@@H](S)Cc1ccccc1`, the inhibition was determined as 65%.

The target in another test is T2, Endothelin-converting enzyme 1 (Rattus norvegicus, UniProt P42893).
T2 sequence (P42893 whole entry): T1 sequence (whole entry)
Briefly: In vitro inhibition of Endothelin-converting enzyme 1 from rat lungs.
As usually defined, the IC50 is the point on the concentration scale where inhibition reaches its midpoint. High values mean lower potency, low ones higher potency. `O=C(N[C@@H](Cc1ccccc1)C(=O)O)[C@@H](CS)Cc1ccccc1`: the IC50 is 1200 nM.
The same measure, in the same setting: the figure for `O=C(N[C@@H](Cc1ccc(-c2cccs2)cc1)C(=O)O)C(CS)Cc1cccc(Br)c1` (stereo partly specified) is 80 nM.
Still for that read-out and setting: the figure for `O=C(N[C@@H](Cc1ccc(-c2cccs2)cc1)C(=O)O)[C@@H](CS)Cc1ccccc1` is 55 nM; for `O=C(N[C@@H](Cc1ccc(-c2ccc3ccccc3c2)cc1)C(=O)O)[C@@H](CS)Cc1ccccc1` it is 300 nM.
Still for that read-out and setting: the figure for `O=C(N[C@@H](Cc1c[nH]c2ccccc12)C(=O)O)[C@H](CS)Cc1ccccc1` is 500 nM; for `O=C(N[C@@H](Cc1c[nH]c2ccccc12)C(=O)O)[C@H](S)Cc1ccccc1` it is 400 nM.
With `O=C(N[C@@H](Cc1c[nH]c2ccccc12)C(=O)O)[C@@H](CS)Cc1ccccc1`, the IC50 was found to be 180 nM.
The same measure, in the same setting: for `O=C(N[C@@H](Cc1c[nH]c2ccccc12)C(=O)O)C(CS)Cc1ccc(OCc2ccccc2)cc1` (stereo partly specified) the value was 800 nM; for `COc1ccc(-c2ccc(C[C@H](NC(=O)[C@@H](CS)Cc3ccccc3)C(=O)O)cc2)cc1`, 800 nM.
For the molecule `COC(=O)[C@H](Cc1c[nH]c2ccccc12)NC(=O)[C@H](CS)Cc1ccccc1`, the IC50 was determined as 3500 nM.
`O=C(N[C@@H](Cc1c[nH]c2ccccc12)C(=O)O)C(CS)Cc1ccc(Br)cc1` (stereo partly specified) came in with a 50% inhibitory concentration (IC50) of 25 nM.
On the same count and under the same terms, for `COC(=O)[C@H](Cc1c[nH]c2ccccc12)NC(=O)[C@H](S)Cc1ccccc1` the value was 2200 nM; for `O=C(N[C@@H](Cc1c[nH]c2ccccc12)C(=O)O)C(CS)Cc1ccccc1` (stereo partly specified), 340 nM; for `COC(=O)[C@H](Cc1c[nH]c2ccccc12)NC(=O)[C@@H](CS)Cc1ccccc1`, 1800 nM.
The molecule `O=C(N[C@@H](Cc1c[nH]c2ccccc12)C(=O)O)C(CS)Cc1cc2c(cc1Cl)OCO2` (stereo partly specified) came in with an IC50 of 400 nM.
Same read-out and setting: for `O=C(N[C@@H](Cc1c[nH]c2ccccc12)C(=O)O)C(CS)Cc1cccc(-c2ccccc2)c1` (stereo partly specified) the value was 40 nM; for `O=C(N[C@@H](Cc1ccc(O)cc1)C(=O)O)[C@@H](CS)Cc1ccccc1`, 2800 nM.
Same read-out and setting: for `O=C(N[C@@H](Cc1ccc(-c2ccccc2)cc1)C(=O)O)[C@@H](CS)Cc1ccccc1` the value was 150 nM; for `O=C(N[C@@H](Cc1c[nH]c2ccccc12)C(=O)O)C(CS)Cc1ccc(-c2ccccc2)cc1` (stereo partly specified), 40 nM; for `O=C(N[C@@H](Cc1ccc(OCc2ccccc2)cc1)C(=O)O)[C@@H](CS)Cc1ccccc1`, 700 nM.
